Measured values published in ChEMBL document CHEMBL5291721, “A preclinical secondary pharmacology resource illuminates target-adverse drug reaction associations of marketed drugs” (Nat Commun, 2023).
Values belong to the molecule of their own block, whether it stands above or below them.

Legend:
[1] = biological target: T1, Androgen receptor (Rattus norvegicus, UniProt P15207); assay type: functional
T1 sequence (P15207 whole entry): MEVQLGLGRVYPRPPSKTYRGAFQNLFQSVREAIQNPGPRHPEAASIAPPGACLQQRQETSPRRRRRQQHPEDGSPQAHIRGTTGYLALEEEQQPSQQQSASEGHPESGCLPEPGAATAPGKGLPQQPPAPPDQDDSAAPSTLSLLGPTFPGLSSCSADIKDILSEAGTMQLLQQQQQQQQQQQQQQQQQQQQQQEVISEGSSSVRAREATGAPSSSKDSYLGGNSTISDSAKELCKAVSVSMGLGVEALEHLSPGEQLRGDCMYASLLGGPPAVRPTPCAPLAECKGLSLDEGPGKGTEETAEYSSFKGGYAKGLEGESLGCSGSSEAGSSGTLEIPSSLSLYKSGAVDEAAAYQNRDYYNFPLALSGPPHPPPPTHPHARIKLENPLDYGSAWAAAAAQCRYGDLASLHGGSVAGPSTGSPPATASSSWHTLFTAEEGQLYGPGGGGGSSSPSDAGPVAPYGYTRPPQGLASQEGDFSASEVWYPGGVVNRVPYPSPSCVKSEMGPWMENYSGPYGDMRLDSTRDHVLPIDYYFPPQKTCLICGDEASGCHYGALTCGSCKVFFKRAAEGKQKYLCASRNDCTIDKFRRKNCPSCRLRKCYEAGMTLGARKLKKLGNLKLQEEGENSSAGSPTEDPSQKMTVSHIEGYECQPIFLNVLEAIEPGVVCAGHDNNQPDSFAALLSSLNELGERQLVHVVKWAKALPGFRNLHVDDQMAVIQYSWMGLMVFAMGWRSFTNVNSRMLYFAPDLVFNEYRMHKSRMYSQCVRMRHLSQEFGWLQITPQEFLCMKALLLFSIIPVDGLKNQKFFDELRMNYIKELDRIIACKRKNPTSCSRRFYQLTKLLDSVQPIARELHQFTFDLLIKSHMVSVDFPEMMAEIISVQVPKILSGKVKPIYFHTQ

[2] = biological target: Glucagon receptor (Homo sapiens, UniProt P47871)
Chain of Glucagon receptor (P47871 whole entry): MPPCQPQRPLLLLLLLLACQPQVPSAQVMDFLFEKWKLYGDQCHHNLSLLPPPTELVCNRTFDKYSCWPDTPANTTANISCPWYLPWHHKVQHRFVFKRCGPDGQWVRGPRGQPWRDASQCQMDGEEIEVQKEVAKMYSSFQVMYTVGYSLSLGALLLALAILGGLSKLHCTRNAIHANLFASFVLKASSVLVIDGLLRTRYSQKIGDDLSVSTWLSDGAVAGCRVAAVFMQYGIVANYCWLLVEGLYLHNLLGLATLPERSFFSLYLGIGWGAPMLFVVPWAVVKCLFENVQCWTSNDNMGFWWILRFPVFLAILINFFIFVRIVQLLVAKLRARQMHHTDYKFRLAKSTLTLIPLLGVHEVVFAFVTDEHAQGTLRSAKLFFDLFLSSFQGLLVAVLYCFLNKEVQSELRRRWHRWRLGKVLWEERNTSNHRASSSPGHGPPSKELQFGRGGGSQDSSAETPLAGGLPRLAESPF

[3] = biological target: T2, Endothelin receptor type B (Homo sapiens, UniProt P24530)
T2 sequence (P24530 whole entry): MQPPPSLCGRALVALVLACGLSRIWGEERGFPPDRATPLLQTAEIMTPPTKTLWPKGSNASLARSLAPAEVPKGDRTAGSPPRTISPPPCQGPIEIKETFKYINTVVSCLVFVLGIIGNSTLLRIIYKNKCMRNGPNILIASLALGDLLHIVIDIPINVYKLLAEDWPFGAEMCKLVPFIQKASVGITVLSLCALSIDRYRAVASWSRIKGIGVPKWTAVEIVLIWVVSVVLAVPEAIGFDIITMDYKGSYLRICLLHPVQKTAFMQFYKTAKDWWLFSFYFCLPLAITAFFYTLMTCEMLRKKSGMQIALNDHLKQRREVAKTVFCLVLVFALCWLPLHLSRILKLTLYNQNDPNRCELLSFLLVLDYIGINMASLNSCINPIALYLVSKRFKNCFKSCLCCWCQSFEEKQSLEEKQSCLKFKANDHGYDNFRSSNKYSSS

[4] = biological target: T3, Gastric inhibitory polypeptide receptor (Homo sapiens, UniProt P48546)
T3 sequence (P48546 whole entry): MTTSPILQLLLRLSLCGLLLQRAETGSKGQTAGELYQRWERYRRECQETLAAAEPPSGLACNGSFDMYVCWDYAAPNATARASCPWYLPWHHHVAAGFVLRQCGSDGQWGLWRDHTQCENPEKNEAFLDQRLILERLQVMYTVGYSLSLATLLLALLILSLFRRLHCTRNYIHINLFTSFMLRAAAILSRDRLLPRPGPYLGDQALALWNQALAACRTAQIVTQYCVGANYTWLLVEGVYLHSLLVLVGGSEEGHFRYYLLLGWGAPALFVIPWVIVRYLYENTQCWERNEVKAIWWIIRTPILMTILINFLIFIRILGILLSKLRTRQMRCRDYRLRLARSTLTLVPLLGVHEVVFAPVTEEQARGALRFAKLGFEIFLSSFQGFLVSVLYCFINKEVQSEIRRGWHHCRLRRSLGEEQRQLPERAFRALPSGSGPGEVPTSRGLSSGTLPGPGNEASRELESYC

[5] = biological target: T4, D(4) dopamine receptor (Homo sapiens, UniProt P21917)
T4 sequence (P21917 whole entry): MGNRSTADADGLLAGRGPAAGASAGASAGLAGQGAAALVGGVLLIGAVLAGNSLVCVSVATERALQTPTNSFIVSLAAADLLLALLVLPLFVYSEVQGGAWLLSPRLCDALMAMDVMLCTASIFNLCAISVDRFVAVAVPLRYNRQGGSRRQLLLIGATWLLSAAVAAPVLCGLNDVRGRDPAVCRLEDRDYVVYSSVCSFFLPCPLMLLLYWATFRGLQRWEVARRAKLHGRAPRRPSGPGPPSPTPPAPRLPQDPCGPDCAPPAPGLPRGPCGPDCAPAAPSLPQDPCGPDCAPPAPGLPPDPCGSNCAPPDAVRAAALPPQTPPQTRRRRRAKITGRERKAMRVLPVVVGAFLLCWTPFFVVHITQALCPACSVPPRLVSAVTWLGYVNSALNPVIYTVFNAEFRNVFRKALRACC

[6] = biological target: Cannabinoid receptor 1 (Homo sapiens, UniProt P21554); assay type: functional
[7] = biological target: 5-hydroxytryptamine receptor 6 (Homo sapiens, UniProt P50406)
Chain of 5-hydroxytryptamine receptor 6 (P50406 whole entry): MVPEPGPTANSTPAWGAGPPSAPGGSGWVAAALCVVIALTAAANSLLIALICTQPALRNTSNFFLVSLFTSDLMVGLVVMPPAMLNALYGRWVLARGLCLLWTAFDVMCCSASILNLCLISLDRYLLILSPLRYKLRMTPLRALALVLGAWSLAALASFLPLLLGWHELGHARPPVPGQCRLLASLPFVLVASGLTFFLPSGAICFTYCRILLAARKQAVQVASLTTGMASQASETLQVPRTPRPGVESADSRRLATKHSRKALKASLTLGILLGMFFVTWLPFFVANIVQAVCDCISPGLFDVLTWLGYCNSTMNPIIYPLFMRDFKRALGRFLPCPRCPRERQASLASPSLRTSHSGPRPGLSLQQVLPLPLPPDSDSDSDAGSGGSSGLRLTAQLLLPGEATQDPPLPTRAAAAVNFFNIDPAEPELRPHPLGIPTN

[8] = biological target: T5, Alpha-1A adrenergic receptor (Homo sapiens, UniProt P35348)
T5 sequence (P35348 whole entry): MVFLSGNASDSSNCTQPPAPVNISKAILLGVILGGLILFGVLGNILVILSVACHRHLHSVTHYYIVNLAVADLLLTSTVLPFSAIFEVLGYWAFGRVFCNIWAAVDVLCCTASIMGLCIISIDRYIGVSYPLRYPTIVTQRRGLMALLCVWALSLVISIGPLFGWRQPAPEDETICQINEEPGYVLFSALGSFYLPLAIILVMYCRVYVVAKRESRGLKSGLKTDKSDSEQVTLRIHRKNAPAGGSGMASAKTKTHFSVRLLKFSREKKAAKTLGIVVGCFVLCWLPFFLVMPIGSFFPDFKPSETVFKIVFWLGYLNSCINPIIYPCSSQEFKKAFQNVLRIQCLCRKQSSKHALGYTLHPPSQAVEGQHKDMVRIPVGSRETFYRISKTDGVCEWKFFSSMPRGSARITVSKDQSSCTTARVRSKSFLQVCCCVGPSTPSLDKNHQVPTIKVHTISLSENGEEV

[9] = biological target: Sodium channel protein type 5 subunit alpha (Homo sapiens, UniProt Q14524); assay type: functional, cell-based
Chain of Sodium channel protein type 5 subunit alpha (Q14524 whole entry): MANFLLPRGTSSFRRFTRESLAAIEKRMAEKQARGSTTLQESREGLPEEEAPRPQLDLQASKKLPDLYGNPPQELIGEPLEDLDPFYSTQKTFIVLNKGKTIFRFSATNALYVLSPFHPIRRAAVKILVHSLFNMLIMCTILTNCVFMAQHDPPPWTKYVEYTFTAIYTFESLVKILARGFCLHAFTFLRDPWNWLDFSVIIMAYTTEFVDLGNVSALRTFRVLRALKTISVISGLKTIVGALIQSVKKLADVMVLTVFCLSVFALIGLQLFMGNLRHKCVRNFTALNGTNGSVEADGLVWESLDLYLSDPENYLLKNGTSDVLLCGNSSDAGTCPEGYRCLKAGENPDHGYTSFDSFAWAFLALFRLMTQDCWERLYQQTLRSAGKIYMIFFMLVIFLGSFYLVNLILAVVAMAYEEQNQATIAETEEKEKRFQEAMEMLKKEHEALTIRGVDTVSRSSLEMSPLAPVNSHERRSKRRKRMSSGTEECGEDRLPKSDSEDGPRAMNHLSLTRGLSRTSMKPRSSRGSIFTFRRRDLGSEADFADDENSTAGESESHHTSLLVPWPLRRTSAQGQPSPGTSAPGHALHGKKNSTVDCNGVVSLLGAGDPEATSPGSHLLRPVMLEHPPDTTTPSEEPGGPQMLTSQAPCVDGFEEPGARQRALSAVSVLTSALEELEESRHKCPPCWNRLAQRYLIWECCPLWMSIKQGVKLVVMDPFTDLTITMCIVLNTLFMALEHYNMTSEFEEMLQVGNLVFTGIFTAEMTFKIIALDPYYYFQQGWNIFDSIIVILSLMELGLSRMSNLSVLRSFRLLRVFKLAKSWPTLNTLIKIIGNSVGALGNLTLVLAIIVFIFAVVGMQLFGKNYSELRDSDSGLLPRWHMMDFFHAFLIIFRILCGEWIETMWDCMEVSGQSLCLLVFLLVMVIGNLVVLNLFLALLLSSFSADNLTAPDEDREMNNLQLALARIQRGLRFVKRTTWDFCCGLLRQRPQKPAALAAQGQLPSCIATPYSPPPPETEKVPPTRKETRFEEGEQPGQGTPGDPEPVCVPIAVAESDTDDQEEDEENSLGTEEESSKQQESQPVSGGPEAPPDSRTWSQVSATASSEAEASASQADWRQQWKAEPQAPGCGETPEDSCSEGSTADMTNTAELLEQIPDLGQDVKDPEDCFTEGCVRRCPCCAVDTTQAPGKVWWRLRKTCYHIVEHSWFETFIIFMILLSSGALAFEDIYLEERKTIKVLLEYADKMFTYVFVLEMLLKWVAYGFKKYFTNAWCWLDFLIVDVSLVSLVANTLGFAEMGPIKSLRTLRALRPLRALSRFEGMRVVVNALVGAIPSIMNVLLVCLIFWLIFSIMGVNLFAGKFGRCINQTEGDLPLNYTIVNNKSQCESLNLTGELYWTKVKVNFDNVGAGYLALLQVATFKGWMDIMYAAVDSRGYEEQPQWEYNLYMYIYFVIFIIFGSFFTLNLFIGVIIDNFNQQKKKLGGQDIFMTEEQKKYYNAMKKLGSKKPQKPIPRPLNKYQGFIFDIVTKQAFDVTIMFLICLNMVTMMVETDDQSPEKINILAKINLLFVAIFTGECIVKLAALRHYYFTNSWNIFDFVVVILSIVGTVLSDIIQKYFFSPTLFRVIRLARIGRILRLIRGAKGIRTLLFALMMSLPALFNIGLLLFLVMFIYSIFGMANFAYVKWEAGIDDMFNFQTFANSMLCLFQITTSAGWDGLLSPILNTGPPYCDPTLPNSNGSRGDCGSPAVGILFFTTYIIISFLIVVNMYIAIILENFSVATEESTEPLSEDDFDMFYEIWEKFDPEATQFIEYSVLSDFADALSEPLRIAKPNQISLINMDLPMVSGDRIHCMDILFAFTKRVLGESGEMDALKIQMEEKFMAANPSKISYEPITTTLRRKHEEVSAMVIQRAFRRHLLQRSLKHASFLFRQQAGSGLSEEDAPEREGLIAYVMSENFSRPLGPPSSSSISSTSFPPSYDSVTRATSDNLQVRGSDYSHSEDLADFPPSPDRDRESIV

[10] = biological target: Voltage-dependent L-type calcium channel subunit alpha-1C (Homo sapiens, UniProt Q13936); assay type: functional, cell-based
Chain of Voltage-dependent L-type calcium channel subunit alpha-1C (Q13936 whole entry): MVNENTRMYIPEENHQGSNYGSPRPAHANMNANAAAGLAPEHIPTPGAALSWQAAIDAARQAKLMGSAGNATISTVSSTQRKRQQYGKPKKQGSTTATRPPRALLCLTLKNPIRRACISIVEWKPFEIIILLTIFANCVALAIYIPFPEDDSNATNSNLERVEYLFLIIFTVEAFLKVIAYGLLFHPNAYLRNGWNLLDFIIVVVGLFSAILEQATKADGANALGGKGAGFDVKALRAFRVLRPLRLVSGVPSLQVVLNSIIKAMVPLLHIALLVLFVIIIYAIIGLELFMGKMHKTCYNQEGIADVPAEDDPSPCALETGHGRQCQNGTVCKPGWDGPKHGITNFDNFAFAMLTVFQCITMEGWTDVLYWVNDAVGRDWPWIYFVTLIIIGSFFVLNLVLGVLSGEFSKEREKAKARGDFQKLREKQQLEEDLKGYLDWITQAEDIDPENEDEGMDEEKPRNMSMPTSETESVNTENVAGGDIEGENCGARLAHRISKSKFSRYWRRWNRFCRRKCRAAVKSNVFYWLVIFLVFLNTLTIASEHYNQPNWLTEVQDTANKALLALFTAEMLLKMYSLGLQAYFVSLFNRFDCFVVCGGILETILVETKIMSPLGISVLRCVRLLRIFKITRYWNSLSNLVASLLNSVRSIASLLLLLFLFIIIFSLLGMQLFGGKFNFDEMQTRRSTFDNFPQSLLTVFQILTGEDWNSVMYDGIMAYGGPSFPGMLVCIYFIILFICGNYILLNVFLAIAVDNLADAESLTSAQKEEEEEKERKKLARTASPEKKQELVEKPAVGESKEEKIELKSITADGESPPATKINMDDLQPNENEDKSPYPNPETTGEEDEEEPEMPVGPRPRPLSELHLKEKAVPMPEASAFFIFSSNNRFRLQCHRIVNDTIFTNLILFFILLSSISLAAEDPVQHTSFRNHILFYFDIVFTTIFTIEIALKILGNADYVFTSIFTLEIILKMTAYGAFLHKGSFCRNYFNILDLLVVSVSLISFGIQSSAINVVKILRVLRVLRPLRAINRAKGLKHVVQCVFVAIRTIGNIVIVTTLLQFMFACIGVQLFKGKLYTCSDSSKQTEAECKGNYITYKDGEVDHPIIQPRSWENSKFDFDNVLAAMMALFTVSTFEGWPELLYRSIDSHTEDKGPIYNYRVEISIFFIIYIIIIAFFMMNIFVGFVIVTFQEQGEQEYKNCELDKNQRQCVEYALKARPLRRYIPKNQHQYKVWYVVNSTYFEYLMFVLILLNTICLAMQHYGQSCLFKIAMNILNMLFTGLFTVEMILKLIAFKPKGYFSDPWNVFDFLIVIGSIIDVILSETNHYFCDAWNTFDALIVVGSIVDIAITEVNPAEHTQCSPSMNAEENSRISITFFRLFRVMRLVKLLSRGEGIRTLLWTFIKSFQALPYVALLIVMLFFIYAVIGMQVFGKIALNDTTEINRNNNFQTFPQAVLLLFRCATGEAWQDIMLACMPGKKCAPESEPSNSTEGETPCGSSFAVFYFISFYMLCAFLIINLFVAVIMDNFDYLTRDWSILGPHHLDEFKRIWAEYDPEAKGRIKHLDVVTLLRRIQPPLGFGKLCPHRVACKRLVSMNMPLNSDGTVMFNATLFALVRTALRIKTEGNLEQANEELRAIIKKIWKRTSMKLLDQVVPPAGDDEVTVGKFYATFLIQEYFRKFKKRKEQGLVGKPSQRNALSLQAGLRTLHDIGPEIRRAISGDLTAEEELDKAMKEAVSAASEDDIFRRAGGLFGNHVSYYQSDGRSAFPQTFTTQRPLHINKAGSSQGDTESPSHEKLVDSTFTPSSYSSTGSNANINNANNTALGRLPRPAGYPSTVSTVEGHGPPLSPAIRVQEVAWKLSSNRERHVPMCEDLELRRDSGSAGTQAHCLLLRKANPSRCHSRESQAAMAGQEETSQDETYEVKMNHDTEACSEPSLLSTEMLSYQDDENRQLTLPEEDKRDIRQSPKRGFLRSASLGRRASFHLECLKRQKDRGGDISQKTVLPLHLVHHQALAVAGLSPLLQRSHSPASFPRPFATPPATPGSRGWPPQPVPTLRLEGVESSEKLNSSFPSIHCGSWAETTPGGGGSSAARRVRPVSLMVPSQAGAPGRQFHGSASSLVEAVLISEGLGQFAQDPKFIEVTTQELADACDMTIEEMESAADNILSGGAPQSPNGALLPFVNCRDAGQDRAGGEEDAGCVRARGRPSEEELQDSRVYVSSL
Also: assay procedure not described here.

AC50 [1]: > 30 µM
Compound: CC(C)(Oc1ccc(Cl)cc1)C(=O)OCCOC(=O)c1cccnc1 [ETOFIBRATE]

AC50 [2]: > 30 µM | AC50 [3]: > 30 µM | AC50 [4]: > 30 µM
Compound: C[C@]12C=CC(=O)C=C1CC[C@@H]1[C@@H]2[C@@H](O)C[C@@]2(C)[C@H]1CC[C@]2(O)C(=O)CO [PREDNISOLONE]

Compound: Cc1ccc(O)c([C@H](CCN(C(C)C)C(C)C)c2ccccc2)c1 [TOLTERODINE]
AC50 [5]: > 10 µM | AC50 [6]: > 10 µM | AC50 [7]: > 10 µM | AC50 [8]: > 10 µM

AC50 [1]: > 30 µM
Compound: C[C@]12C=CC(=O)C=C1C(Cl)=C[C@@H]1[C@@H]2[C@@H](O)C[C@@]2(C)[C@H]1CC[C@]2(O)C(=O)CO [CLOPREDNOL]

Compound: N=C(N)NC(=O)c1nc(Cl)c(N)nc1N [AMILORIDE]
AC50 [5]: > 10 µM | AC50 [6]: > 10 µM | AC50 [7]: > 10 µM | AC50 [2]: > 30 µM | AC50 [3]: > 30 µM | AC50 [4]: > 30 µM | AC50 [8]: > 10 µM

Compound: COc1cccc2c1C(=O)c1c(O)c3c(c(O)c1C2=O)C[C@@](O)(C(=O)CO)C[C@@H]3O[C@H]1C[C@H](N)[C@H](O)[C@H](C)O1 [DOXORUBICIN]
AC50 [9]: > 50 µM | AC50 [10]: > 50 µM

Compound: C[C@@H]1CN(c2c(F)c(N)c3c(=O)c(C(=O)O)cn(C4CC4)c3c2F)C[C@H](C)N1 [SPARFLOXACIN]
AC50 [9]: > 50 µM | AC50 [10]: > 50 µM
